pIC50: −log10 of the molar value. Where a name gives a salt, the structure may show the parent alone.

This is an account of results in US8455533B2, “Aminotetrahydropyrans as dipeptidyl peptidase-IV inhibitors for the treatment or prevention of diabetes” (Merck Sharp & Dohme Corp., priority 2009, dated 2013).

Test [1] has as its target T1, dipeptidyl peptidase-IV enzyme (DPP-4) (Homo sapiens, UniProt P27487).
T1 construct: The enzyme used in these studies was soluble (transmembrane domain and cytoplasmic extension excluded) human protein; made in house; host or cells: baculovirus expression system (Bac-To-Bac, Gibco BRL)
Put plainly: DPP-4 inhibition, continuous fluorometric assay with substrate Gly-Pro-AMC. Type of test: biochemical. As to conditions: soluble human DPP-4, 50 μM Gly-Pro-AMC, pH 7.5, room temperature. The method, then: Inhibition constants are determined as follows. A continuous fluorometric assay is employed with the substrate Gly-Pro-AMC, which is cleaved by DPP-4 to release the fluorescent AMC leaving group. […] A typical reaction contains approximately 50 pM enzyme, 50 μM Gly-Pro-AMC, and buffer (100 mM HEPES, pH 7.5, 0.1 mg/mL BSA) in a total reaction volume of 100 μL. Liberation of AMC is monitored continuously in a 96-well plate fluorometer using an excitation wavelength of 360 nm and an emission wavelength of 460 nm. Under these conditions, approximately 0.8 μM AMC is produced in 30 min at 25 degrees C. The enzyme used in these studies was soluble (transmembrane domain and cytoplasmic extension excluded) human protein produced in a baculovirus expression system (Bac-To-Bac, Gibco BRL). […] To measure the dissociation constants for compounds, solutions of inhibitor in DMSO were added to reactions containing enzyme and substrate (final DMSO concentration is 1%). All experiments were conducted at room temperature using the standard reaction conditions described above. To determine the dissociation constants (Ki), reaction rates were fit by non-linear regression to the Michaelis-Menton equation for competitive inhibition. The errors in reproducing the dissociation constants are typically less than two-fold.

Test [2] relates to cardiac allograft survival. As to conditions: rats; survival from day 7 to day 14; Transplantation 63:1495-1500 (1997); cited from earlier work.
For the next test, the system named is hematopoiesis. As to conditions: mouse, cyclophosphamide-induced neutropenia; WO 99/56753; cited from earlier work.
Another test concerns the target DPP-4 (Homo sapiens, UniProt P27487). As to conditions: cited from earlier work.

T1 sequence (P27487 29-766 limits assumed): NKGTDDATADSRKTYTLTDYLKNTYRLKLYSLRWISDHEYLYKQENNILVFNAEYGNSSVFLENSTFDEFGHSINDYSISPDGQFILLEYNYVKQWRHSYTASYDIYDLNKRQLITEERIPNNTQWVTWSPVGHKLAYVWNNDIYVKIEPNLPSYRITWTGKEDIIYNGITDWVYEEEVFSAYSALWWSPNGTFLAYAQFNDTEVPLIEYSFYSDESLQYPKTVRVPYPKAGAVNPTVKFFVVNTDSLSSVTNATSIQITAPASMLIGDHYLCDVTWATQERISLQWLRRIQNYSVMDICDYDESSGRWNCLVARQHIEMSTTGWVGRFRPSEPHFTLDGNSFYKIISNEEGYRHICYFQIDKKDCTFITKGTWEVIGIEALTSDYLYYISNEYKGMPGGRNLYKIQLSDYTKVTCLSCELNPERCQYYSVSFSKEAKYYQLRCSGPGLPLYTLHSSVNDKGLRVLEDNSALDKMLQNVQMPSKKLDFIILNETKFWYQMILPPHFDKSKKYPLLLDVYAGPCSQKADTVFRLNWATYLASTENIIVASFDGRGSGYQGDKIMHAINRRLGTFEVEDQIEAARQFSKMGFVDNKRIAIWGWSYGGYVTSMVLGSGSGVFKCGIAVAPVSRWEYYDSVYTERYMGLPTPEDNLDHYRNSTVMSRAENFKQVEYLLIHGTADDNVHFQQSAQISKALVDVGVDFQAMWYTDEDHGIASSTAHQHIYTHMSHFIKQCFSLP
Sequence of DPP-4 (P27487 39-766 limits assumed, species assumed): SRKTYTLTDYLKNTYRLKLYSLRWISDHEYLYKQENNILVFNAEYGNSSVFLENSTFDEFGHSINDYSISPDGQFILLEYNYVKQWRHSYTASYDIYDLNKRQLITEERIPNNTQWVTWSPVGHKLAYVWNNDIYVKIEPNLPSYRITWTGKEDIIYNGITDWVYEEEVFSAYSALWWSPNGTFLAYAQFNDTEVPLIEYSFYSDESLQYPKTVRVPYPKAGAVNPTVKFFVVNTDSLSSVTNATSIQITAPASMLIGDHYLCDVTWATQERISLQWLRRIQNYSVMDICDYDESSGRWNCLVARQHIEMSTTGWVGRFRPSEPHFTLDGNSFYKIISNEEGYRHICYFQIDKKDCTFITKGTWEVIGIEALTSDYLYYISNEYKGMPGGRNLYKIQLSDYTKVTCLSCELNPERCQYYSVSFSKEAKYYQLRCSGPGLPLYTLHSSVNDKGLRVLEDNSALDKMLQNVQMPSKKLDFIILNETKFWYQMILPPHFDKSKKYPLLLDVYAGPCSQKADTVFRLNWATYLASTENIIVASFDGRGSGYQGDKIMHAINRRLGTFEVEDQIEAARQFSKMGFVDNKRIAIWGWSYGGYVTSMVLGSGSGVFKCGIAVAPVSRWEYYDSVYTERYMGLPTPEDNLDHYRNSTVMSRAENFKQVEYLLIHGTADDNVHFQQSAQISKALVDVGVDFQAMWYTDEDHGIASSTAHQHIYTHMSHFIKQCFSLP

What is called pIC50 is the negative decadic logarithm of the IC50, by convention in mol/L. Regarding `NC(=O)Cn1cc2c(n1)CN([C@H]1CO[C@H](c3cc(F)ccc3F)[C@@H](N)C1)C2` [Example 1, 2-{5-[(3R,5S,6R)-5-amino-6-(2,5-difluorophenyl)tetrahydro-2H-pyran-3-yl]-5,6-dihydropyrrolo[3,4-c]pyrazol-2(4H)-yl}acetamide], the negative-log IC50 (pIC50) in test [1] was 8.17.

For the molecule `COC(=O)Cn1cc2c(n1)CN([C@H]1CO[C@H](c3cc(F)ccc3F)[C@@H](N)C1)C2` [Example 2, Methyl {5-[(3R,5S,6R)-5-amino-6-(2,5-difluorophenyl)tetrahydro-2H-pyran-3-yl]-5,6-dihydropyrrolo[3,4-c]pyrazol-2(4B)-yl}acetate], the pIC50 in test [1] is 8.09.

Turning to `N[C@H]1C[C@@H](N2Cc3cn(CC(=O)O)nc3C2)CO[C@@H]1c1cc(F)ccc1F` [Example 3, {5-[(3R,5S,6R)-5-amino-6-(2,5-difluorophenyl)tetrahydro-2H-pyran-3-yl]-5,6-dihydropyrrolo[3,4-c]pyrazol-2(4H)-yl}acetic acid hydrochloride salt], the pIC50 in test [1] was 8.03. The same measure, in the same setting: the value for `N[C@H]1C[C@@H](N2Cc3cn(CCO)nc3C2)CO[C@@H]1c1cc(F)ccc1F` [Example 4, 2-{5-[(3R,5S,6R)-5-amino-6-(2,5-difluorophenyl)tetrahydro-2H-pyran-3-yl]-5,6-dihydropyrrolo[3,4-c]pyrazol-2(4H)-yl}ethanol] was 7.96; that for `CC(C)(O)Cn1cc2c(n1)CN([C@H]1CO[C@H](c3cc(F)ccc3F)[C@@H](N)C1)C2` [Example 5, 1-{5-[(3R,5S,6R)-5-amino-6-(2,5-difluorophenyl)tetrahydro-2H-pyran-3-yl]-5,6-dihydropyrrolo[3,4-c]pyrazol-2(4H)-yl}-2-methylpropan-2-ol] was 8.03; that for `CC(C)(O)Cn1ncc2c1CN([C@H]1CO[C@H](c3cc(F)ccc3F)[C@@H](N)C1)C2` [Example 6, 1-{5-[(3R,5S,6R)-5-amino-6-(2,5-difluorophenyl)tetrahydro-2H-pyran-3-yl]-5,6-dihydropyrrolo-[3,4-c]pyrazol-1(4H)-yl}-2-methylpropan-2-ol] was 8.40. The same measure, in the same setting: the value for `NC(=O)Cn1ncc2c1CN([C@H]1CO[C@H](c3cc(F)ccc3F)[C@@H](N)C1)C2` [Example 7] was 8.12; that for `NC(=O)Cn1cc2c(n1)CN([C@H]1CO[C@H](c3cc(F)c(F)cc3F)[C@@H](N)C1)C2` [Example 8] was 8.05.

In the case of `NC(=O)Cn1ncc2c1CN([C@H]1CO[C@H](c3cc(F)c(F)cc3F)[C@@H](N)C1)C2` [Example 9], the pIC50 in test [1] is 8.13.

With `COC(=O)Cn1cc2c(n1)CN([C@H]1CO[C@H](c3cc(F)c(F)cc3F)[C@@H](N)C1)C2` [Example 10], the pIC50 in test [1] was 7.92. On the same count and under the same terms, under `CC(C)(O)Cn1ncc2c1CN([C@H]1CO[C@H](c3cc(F)c(F)cc3F)[C@@H](N)C1)C2` [Example 12] stands 8.04; under `N#Cc1[nH]nc2c1CN([C@H]1CO[C@H](c3cc(F)ccc3F)[C@@H](N)C1)C2` [Example 13], 9.05; under `N[C@H]1C[C@@H](N2Cc3n[nH]c(-c4nnn[nH]4)c3C2)CO[C@@H]1c1cc(F)ccc1F` [Example 14], 9.22. On to `CC(C)N1CCC(c2ccccc2)(c2ccccc2)CC1` [Prodipine, Pro-Pro-diphenyl-phosphonate], for which, in test [2], the cardiac allograft survival result is given as “double cardiac allograft survival”.

Turning to `CC(C)[C@H](N)C(=O)N1CCC[C@H]1B(O)O` [Val-Boro-Pro], the hematopoiesis entry with hematopoiesis was “stimulated hematopoiesis”.

Take diprotin A: the “degradation of GRF in plasma to GRF[3-44]” value at DPP-4 was “prevented”.
